Laboratory results from ChEMBL document CHEMBL1201862, “PubChem BioAssay data set” (2004).
Calls of active or inactive are those of the source.

Experiments:
[1] = (§1) Counterscreen for antagonists of the orexin 1 receptor (OX1R; HCRTR1): Fluorescence-based cell-based high throughput dose response assay to identify antagonists of the parental CHO cell line. [Related pubchem assays (depositor defined):AID434989, AID435008, AID463079, AID485270, AID492963, AID492964, AID492965, AID493232, AID504699, AID504701]; type: functional
[2] = molecular target: T1, Orexin/Hypocretin receptor type 1 (Homo sapiens, UniProt O43613); assay: (§2) Fluorescence-based cell-based high throughput dose response assay for antagonists of the orexin 1 receptor (OX1R; HCRTR1). [Related pubchem assays (depositor defined):AID434989, AID435008, AID463079, AID485270, AID492963, AID492964, AID492965, AID493232, AID504717, AID504718]; type: functional
T1 sequence (O43613 whole entry): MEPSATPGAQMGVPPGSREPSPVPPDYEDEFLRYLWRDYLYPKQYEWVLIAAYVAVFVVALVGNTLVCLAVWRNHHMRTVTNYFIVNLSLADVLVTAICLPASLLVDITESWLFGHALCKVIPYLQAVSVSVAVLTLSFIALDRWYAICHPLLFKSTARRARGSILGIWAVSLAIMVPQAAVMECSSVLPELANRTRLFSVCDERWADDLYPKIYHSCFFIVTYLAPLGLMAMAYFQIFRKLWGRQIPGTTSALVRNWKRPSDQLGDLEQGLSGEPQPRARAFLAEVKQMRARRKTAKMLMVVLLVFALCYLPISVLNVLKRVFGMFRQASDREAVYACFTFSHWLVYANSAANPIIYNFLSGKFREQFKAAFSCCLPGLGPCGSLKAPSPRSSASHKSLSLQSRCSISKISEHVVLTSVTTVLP

CHO-K1 = assay: as §1, with “Homogeneous time resolved fluorescence (HTRF)-based” for “Fluorescence-based”, “cell-based” for “cell-based high throughput”, “CHO-K1” for “CHO”; type: functional; conditions: Cricetulus griseus;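 also: potency for inhibition of ATP-stimulated IP1 production as antagonists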
[3] = molecular target: T1, Orexin/Hypocretin receptor type 1; assay: as §2, with “Homogeneous Time Resolved Fluorescence (HTRF)-based” for “Fluorescence-based”; type: functional
Orexin receptor type 2 [4] = molecular target: T2, Orexin receptor type 2 (Homo sapiens, UniProt O43614); assay: Counterscreen assay for antagonists of the orexin 1 receptor (OX1R; HCRTR1): Homogeneous Time Resolved Fluorescence (HTRF)-based cell-based dose response assay for antagonists of the orexin 2 receptor (OX2R; HCRTR2), run by assay provider.; type: functional
T2 sequence (O43614 whole entry): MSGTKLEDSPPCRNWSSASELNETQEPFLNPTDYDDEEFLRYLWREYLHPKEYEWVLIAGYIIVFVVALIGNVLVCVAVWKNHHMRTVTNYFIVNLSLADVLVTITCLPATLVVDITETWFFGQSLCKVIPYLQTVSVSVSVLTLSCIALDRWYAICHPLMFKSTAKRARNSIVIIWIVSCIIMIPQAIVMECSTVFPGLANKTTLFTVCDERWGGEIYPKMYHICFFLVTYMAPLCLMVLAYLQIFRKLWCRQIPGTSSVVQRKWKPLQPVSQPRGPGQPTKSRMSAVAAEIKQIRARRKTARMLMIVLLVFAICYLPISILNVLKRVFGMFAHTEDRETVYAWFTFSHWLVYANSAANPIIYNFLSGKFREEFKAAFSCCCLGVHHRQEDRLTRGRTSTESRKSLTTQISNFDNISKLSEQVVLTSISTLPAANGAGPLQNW

Orexin receptor type 2 [5] = molecular target: T2, Orexin receptor type 2; assay: Counterscreen assay for antagonists of the orexin 1 receptor (OX1R; HCRTR1): Fluorescence-based cell-based dose response assay for antagonists of the orexin 2 receptor (OX2R; HCRTR2), run by assay provider.; type: functional
Phospholipase A2 = Phospholipase A2 (Homo sapiens, UniProt P04054); type: functional;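 also: confirmatory dose-response counterscreen on phospholipase A2, testing hits that came from an ultra-high-throughput screen for ATG4B inhibitors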
Cysteine protease ATG4B = Cysteine protease ATG4B (Homo sapiens, UniProt Q9Y4P1); type: functional;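 also: Fluorescence-based dose-response confirmation assay measuring inhibition of ATG4B activity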
[6] = molecular target: Peroxisome proliferator-activated receptor gamma/Nuclear receptor coactivator 2 (Homo sapiens, UniProt P37231); assay: (§3) TR-FRET dose response biochemical High Throughput Screening assay for agonists of the steroid receptor coactivator 2 (SRC-2) recruitment by the peroxisome proliferator-activated receptor gamma (PPAR gamma): non-selective agonists. [Related pubchem assays: 1297, 1032 ]; type: functional
[7] = molecular target: Peroxisome proliferator-activated receptor gamma/Nuclear receptor coactivator 3 (Homo sapiens, UniProt P37231); assay: as §3, with “3 (SRC-3)” for “2 (SRC-2)”, “1301 (Confirmation screen.), 1048 (Primary screen.)]” for “1297, 1032 ]”; type: functional
[8] = molecular target: Peroxisome proliferator-activated receptor gamma/Nuclear receptor coactivator 1 (Homo sapiens, UniProt P37231); assay: as §3, with “1 (SRC-1)” for “2 (SRC-2)”, “assays (depositor defined):AID1300, AID1808, AID504735, AID631]” for “assays: 1297, 1032 ]”; type: protein assay
[9] = THP-1 cell cytotoxicity, dose response, cytotoxicity control for non-replicating M. tuberculosis project (AID 489025); type: functional
Mu-type opioid receptor [10] = molecular target: T3, Mu-type opioid receptor (Homo sapiens, UniProt P35372); assay: (§4) Counterscreen for agonists of heterodimerization of the mu 1 (OPRM1) and delta 1 (OPRD1) opioid receptors: Luminescence-based cell-based high throughput dose response assay to identify agonists of OPRM1 homodimerization.; type: functional
[11] = molecular target: T4, Delta-type opioid receptor (Homo sapiens, UniProt P41143); assay: as §4, with “of OPRD1” for “of OPRM1”, “homodimerization. [Related pubchem assays (depositor defined):AID504326, AID504355, AID504692, AID504904, AID504905]” for “homodimerization.”; type: functional
[12] = HepG2 cell cytotoxicity, dose response, cytotoxicity control for non-replicating M. tuberculosis project (AID 489018); type: functional; conditions: Mycobacterium tuberculosis
[13] = inhibitors of intracellular T. cruzi replication, confirmation, NIH3T3 host cells, beta-gal luminescence (AID 2044); type: functional, cell-based;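 also: intracellular parasites grown in NIH/3T3 mouse fibroblasts as host cells; luminescent beta-galactosidase reporter signal from transgenic T. cruzi replicating inside host cells; inhibitors lower the luminescence signal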
[14] = molecular target: 5-hydroxytryptamine receptor 5A (Homo sapiens, UniProt P47898); assay: Counterscreen for agonists of OPRM1-OPRD1 heterodimerization: luminescence-based cell-based high throughput dose response assay to identify agonists of 5-hydroxytryptamine (serotonin) 5A receptor (HTR5A). [Related pubchem assays (depositor defined):AID504326, AID504355, AID504692, AID504904, AID504905]; type: functional
cells = type: functional
[15] = Vero E6 cell cytotoxicity, dose response, cytotoxicity control for non-replicating M. tuberculosis project, secondary assay (AID 492998); type: functional, VeroE6; conditions: Vero C1008
[16] = cytotoxicity toward NIH3T3 fibroblasts, dose response, counter-screen, cell-based, ATP luminescence, mouse fibroblasts (AID 2010); type: functional;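 also: cells exposed to compound for about 90 hours before reading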
[17] = molecular target: Apoptotic protease-activating factor 1 (Homo sapiens, UniProt O14727); type: functional
Mu-type opioid receptor [18] = molecular target: T3, Mu-type opioid receptor; assay: MOR agonists by imaging, SAR follow-up, image-based (AID 2352); type: functional
[19] = molecular target: T5, Kappa-type opioid receptor (Homo sapiens, UniProt P41145); assay: SAR analysis of small molecule agonists of the kappa opioid receptor via a luminescent beta-arrestin assay. [Related pubchem assays (depositor defined):AID1777, AID1786, AID1966, AID2133, AID2136, AID2348, AID2352, AID2357, AID2359, AID2370, AID2420, AID2478, AID2491, AID2492, AID2493, AID2497, AID2498, AID2500, AID449737, AID488822, AID488842]; type: functional
[20] = molecular target: T5, Kappa-type opioid receptor; assay: KOR antagonists by imaging, SAR follow-up, image-based (AID 2348); type: functional
Mu-type opioid receptor [21] = molecular target: T3, Mu-type opioid receptor; assay: MOR antagonists, SAR follow-up, image-based (AID 2420); type: functional;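 also: compounds added before stimulation of receptor with agonist DAMGO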
[22] = molecular target: T4, Delta-type opioid receptor; assay: DOR agonists, SAR follow-up, image-based (AID 2370); type: functional
[23] = molecular target: T5, Kappa-type opioid receptor; assay: KOR agonist analogs, imaging readout, SAR follow-up, image-based (AID 2359); type: functional
[24] = molecular target: T4, Delta-type opioid receptor; assay: DOR antagonists, SAR follow-up, image-based (AID 2357); type: functional
[25] = molecular target: Lysine-specific demethylase 4C (Homo sapiens, UniProt Q9H3R0); assay: GASC-1 (JMJD2C) histone demethylase inhibitors, dose response, biochemical, DELFIA europium, cherry-picked samples (AID 488835); type: functional
Sequence of Lysine-specific demethylase 4C (Q9H3R0 whole entry): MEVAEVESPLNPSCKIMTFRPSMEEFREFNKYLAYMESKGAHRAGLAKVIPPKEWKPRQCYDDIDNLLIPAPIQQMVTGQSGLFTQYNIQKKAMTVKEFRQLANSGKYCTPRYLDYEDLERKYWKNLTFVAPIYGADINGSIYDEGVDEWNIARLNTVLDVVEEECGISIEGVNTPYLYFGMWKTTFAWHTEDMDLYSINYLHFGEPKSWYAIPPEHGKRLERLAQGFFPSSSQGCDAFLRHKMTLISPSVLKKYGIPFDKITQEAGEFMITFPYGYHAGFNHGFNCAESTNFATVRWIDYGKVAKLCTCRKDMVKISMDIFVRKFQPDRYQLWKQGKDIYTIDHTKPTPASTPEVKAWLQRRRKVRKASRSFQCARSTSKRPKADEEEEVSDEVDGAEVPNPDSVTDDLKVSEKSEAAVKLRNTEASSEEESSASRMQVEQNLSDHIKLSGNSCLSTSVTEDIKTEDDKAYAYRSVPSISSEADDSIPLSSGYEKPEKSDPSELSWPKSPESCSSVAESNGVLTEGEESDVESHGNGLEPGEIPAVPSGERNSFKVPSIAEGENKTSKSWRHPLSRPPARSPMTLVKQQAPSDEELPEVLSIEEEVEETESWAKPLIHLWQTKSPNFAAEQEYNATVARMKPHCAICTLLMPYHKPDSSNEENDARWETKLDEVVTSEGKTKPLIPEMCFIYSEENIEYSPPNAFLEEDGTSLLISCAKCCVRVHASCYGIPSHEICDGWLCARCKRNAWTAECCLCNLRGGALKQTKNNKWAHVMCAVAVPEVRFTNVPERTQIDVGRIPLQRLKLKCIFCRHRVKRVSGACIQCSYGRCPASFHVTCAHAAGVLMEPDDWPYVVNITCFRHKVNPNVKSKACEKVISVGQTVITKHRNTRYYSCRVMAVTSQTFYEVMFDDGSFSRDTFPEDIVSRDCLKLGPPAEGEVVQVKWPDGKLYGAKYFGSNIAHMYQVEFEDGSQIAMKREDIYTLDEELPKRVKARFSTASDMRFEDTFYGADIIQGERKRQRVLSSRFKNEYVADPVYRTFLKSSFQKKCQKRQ

T4 sequence (P41143 whole entry): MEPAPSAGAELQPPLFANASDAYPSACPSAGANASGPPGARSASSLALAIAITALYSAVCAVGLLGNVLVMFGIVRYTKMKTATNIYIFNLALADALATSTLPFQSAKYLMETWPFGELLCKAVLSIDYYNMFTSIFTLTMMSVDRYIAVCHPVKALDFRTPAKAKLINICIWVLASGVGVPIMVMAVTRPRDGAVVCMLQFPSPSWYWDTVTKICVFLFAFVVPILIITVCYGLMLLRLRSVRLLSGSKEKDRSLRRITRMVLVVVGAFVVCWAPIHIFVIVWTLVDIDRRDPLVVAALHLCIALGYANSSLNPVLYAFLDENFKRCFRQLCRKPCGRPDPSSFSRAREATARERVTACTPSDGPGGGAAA
T5 sequence (P41145 whole entry): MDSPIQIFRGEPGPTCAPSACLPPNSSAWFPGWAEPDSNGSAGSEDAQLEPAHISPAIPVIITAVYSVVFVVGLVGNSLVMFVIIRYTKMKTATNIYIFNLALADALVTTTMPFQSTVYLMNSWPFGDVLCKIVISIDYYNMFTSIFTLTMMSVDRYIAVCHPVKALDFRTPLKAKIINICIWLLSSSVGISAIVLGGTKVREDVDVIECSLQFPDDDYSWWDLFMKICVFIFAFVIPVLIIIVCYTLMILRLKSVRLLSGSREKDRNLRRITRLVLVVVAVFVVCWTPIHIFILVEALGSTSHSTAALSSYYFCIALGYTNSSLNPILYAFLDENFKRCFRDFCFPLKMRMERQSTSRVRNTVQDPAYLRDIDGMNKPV
T3 sequence (P35372 whole entry): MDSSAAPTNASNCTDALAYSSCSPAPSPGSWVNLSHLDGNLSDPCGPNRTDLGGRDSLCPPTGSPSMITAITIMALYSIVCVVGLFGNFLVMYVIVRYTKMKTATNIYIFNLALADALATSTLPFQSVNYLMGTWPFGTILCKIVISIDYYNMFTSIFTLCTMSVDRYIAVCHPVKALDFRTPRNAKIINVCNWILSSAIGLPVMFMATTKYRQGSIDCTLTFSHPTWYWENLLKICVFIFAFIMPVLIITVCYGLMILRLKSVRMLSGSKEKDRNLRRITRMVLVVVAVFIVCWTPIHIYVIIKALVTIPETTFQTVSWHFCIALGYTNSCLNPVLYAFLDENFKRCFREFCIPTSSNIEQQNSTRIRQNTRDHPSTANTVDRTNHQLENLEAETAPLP
Sequence of 5-hydroxytryptamine receptor 5A (P47898 whole entry): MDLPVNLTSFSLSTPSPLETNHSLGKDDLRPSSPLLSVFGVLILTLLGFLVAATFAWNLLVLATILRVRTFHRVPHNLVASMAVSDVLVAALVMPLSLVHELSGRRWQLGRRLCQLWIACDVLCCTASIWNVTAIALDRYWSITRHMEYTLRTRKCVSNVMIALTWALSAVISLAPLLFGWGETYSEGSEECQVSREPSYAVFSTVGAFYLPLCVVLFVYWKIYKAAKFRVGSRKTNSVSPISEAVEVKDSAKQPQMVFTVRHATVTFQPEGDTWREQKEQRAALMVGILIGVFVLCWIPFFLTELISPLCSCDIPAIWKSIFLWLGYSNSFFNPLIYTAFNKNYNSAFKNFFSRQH
Sequence of Peroxisome proliferator-activated receptor gamma/Nuclear receptor coactivator 3 (P37231 whole entry): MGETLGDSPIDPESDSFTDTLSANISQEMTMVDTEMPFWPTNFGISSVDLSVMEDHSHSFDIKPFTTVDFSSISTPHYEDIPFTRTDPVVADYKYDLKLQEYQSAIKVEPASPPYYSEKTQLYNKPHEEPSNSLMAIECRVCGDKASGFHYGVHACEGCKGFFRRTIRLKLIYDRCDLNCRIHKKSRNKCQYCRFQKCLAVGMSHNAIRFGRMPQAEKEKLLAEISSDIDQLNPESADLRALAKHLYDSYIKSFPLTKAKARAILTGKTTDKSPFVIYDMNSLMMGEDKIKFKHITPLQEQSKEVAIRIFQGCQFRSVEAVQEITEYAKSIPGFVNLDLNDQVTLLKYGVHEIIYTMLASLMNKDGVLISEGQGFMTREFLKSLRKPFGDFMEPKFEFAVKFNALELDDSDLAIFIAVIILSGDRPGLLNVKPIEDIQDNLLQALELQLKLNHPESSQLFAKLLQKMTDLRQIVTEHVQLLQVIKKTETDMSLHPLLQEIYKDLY
Sequence of Peroxisome proliferator-activated receptor gamma/Nuclear receptor coactivator 3 (Q9Y6Q9 whole entry, further chain): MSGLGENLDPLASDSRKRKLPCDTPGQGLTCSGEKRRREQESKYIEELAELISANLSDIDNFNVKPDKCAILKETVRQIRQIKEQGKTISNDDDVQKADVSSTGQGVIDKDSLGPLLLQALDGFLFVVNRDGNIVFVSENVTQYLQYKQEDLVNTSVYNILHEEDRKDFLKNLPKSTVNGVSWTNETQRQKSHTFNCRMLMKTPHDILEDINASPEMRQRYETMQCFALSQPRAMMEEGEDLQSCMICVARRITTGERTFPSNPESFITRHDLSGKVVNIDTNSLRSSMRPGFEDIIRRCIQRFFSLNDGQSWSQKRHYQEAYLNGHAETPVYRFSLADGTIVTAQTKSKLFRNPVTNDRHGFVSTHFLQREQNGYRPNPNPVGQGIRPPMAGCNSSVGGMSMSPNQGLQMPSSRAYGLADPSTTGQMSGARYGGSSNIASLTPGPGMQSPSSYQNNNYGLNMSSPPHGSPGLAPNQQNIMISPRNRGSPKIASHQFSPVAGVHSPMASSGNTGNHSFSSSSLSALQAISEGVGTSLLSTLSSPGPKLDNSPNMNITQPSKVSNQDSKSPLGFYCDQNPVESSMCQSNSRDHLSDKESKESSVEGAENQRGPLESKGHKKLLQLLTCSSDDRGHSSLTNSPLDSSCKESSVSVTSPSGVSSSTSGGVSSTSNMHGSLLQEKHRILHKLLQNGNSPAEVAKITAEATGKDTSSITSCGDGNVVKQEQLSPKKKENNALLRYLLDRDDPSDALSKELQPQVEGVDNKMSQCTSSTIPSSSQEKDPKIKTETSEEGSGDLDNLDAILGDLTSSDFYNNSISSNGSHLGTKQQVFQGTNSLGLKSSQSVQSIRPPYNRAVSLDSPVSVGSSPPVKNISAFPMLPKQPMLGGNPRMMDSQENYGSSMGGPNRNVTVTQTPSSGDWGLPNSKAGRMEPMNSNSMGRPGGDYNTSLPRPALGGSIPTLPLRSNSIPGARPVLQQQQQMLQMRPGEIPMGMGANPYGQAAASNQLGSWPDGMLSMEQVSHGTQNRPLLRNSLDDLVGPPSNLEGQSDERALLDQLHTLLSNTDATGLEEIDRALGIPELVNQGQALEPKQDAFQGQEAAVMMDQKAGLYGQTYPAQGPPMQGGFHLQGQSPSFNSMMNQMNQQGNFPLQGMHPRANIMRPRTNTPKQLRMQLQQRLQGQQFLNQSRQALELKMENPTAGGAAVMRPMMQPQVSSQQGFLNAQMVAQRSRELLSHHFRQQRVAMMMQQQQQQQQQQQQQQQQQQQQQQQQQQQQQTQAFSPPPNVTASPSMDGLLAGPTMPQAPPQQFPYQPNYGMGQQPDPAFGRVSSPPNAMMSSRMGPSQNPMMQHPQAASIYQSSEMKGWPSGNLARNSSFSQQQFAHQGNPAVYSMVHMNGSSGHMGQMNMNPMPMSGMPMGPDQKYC
Sequence of Cysteine protease ATG4B (Q9Y4P1 whole entry): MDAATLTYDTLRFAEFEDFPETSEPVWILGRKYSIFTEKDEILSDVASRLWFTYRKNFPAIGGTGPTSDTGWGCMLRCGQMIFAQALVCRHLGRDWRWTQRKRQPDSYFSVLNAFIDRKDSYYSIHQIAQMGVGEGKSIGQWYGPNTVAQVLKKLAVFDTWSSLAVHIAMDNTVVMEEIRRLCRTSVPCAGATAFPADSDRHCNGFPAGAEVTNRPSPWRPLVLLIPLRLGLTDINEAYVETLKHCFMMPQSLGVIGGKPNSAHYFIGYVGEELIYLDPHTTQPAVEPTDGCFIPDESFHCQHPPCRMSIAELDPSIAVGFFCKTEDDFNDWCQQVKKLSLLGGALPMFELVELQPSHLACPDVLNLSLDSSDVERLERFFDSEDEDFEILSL

Cc1cccc(/C=N/NC(=O)c2cc3c(s2)-c2ccccc2CC3)c1
IC50 [1]: > 49.8 µM (inactive)
IC50 [2]: 2.81 µM (active)
IC50 (CHO-K1): > 66.2 µM (inactive)
IC50 [3]: 2.13 µM (active)
IC50 (Orexin receptor type 2 [4]): > 50 µM (inactive)
IC50 (Orexin receptor type 2 [5]): > 88.8 µM (inactive)

Cc1nn(Cc2c(Cl)cccc2Cl)c(C)c1NC(=O)CCCn1nc([N+](=O)[O-])c(Cl)c1C
IC50 (Phospholipase A2): 9.06 µM (active)
IC50 (Cysteine protease ATG4B): 9.88 µM (active)

CCn1c(=S)[nH]c2c(c1=O)C(C)(C)Cc1ccccc1-2
EC50 [6]: > 79.4 µM (not active)
EC50 [7]: > 79.4 µM (not active)
EC50 [8]: > 79.4 µM (inactive)

CN1CCN(c2ccc(NC(=O)c3ccc(-c4ccc(Br)cc4)o3)cc2)CC1
CC50 [9]: 16.7 µM (active)
EC50 (Mu-type opioid receptor [10]): > 3.42 µM (active)
EC50 [11]: > 10.3 µM (inactive)
CC50 [12]: > 20 µM (active)
EC50 [13]: 1.26 µM (active)
EC50 [14]: > 92.5 µM (inactive)
IC50 (cells): 2.59 µM (active)
CC50 [15]: 13 µM (active)
EC50 [16]: > 60 µM (not active)
IC50 [17]: 37 µM (active)

CCCN(Cc1cc2cc(C)ccc2[nH]c1=O)C(=O)c1ccccn1
EC50 (Mu-type opioid receptor [18]): > 32 µM (inactive)
EC50 [19]: > 10 µM (inactive)
IC50 [20]: > 32 µM (inactive)
IC50 (Mu-type opioid receptor [21]): > 32 µM (inactive)
EC50 [22]: > 32 µM (inactive)
EC50 [23]: > 32 µM (inactive)
IC50 [24]: > 32 µM (inactive)

CC(Sc1nc2c(cc1C#N)CCCCC2)C(=O)O (stereo not given)
AC50 [25]: > 60 µM (inactive)

CN(C)c1ccc(C(=O)OCC(=O)N2CCCC2)cc1
AC50 [25]: 10.6 µM (active)
